The supplement of paper PMC10331698
± gives the standard deviation of the averaged measurements.

Legend:
Test in all cases: level (log10 ratio to DMSO vehicle control); higher = higher biomarker level / cell amount than vehicle control
[1] = compound: FC(F)(F)COC(OCC(F)(F)F)OCC(F)(F)F [tris(Trifluoroethoxy)methane]; details: in DMSO
Experimental: (§1)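 BioMAP Diversity Plus panel of 12 human primary cell co-culture systems (3C, 4H, LPS, SAg, BT, BF4T, BE3C, CASM3C, HDF3CGF, KF3CT, MyoF, Mphg). Compounds were added 1 h before stimulation and left for 24 h (MyoF 48 h; BT 72 h for soluble read-outs or 6 d for IgG). Biomarkers were read by ELISA, cytotoxicity by SRB, PBMC viability and proliferation by Alamar Blue. Each well value was divided by the mean of 8 DMSO control wells on the same plate and log10 transformed; duplicate blinded samples were tested at 4 concentrations.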

[2] = compound: C=CC(=O)OCCC(F)(F)C(F)(F)C(F)(F)C(F)(F)C(F)(F)C(F)(F)C(F)(F)C(F)(F)F [8:2 Fluorotelomer acrylate]; details: in DMSO
Experimental: as §1

[3] = compound: OCC(F)(F)C(F)(F)C(F)(F)C(F)(F)C(F)(F)C(F)(F)C(F)(F)C(F)(F)C(F)(F)C(F)(F)C(F)(F)F [11:1 Fluorotelomer alcohol]; details: in DMSO
Experimental: as §1

[4] = compound: O=S(=O)(OCC(F)(F)F)C(F)(F)C(F)(F)C(F)(F)C(F)(F)F [2,2,2-Trifluoroethyl perfluorobutanesulfonate]; details: in DMSO
Experimental: as §1

Perfluorooctanoic acid = compound: O=C(O)C(F)(F)C(F)(F)C(F)(F)C(F)(F)C(F)(F)C(F)(F)C(F)(F)F [Perfluorooctanoic acid]; details: in DMSO
Experimental: as §1

[5] = compound: OCCCCC(F)(F)C(F)(F)C(F)(F)C(F)(F)F [4:4 Fluorotelomer alcohol]; details: in DMSO
Experimental: as §1

[6] = compound: C=CC(=O)OCC(F)(F)C(F)(F)C(F)(F)C(F)(F)COC(=O)C=C [1H,1H,6H,6H-Perfluorohexane-1,6-diol diacrylate]; details: 6700 nM; in DMSO
Experimental: as §1

Row | Test System | level (log10) ([1]; 6700 nM) | level (log10) ([1]; 20000 nM) | level (log10) ([1]; 60000 nM) | level (log10) ([2]; 6700 nM) | level (log10) ([2]; 20000 nM) | level (log10) ([2]; 60000 nM) | level (log10) ([3]; 1100 nM) | level (log10) ([3]; 3300 nM) | level (log10) ([3]; 10000 nM) | level (log10) ([4]; 6700 nM) | level (log10) ([4]; 20000 nM) | level (log10) ([4]; 60000 nM) | level (log10) (Perfluorooctanoic acid; 6700 nM) | level (log10) (Perfluorooctanoic acid; 20000 nM) | level (log10) (Perfluorooctanoic acid; 60000 nM) | level (log10) ([5]; 6700 nM) | level (log10) ([5]; 20000 nM) | level (log10) ([5]; 60000 nM) | level (log10) [6]
1 | MyoF:CXCL8/IL-8 | -0.0155 ± 0.035 | -0.0125 ± 0.0078 | 0.0195 ± 0.015 | -0.003 ± 0.02 | 0.008 ± 0.018 | 0.029 ± 0.0057 | -0.0155 ± 0.035 | -0.0145 ± 0.037 | 0 ± 0.04 | -0.003 ± 0.064 | 0.0405 ± 0.057 | 0.013 ± 0.09 | 0.022 ± 0.0028 | 0.0725 ± 0.026 | 0.078 ± 0.02 | 0.041 ± 0.075 | 0.0345 ± 0.1 | 0.0695 ± 0.13 | -0.049 ± 0.035
2 | MyoF:Collagen I | -0.006 ± 0.0085 | -0.013 ± 0.017 | -0.01 ± 0.0014 | -0.0095 ± 0.005 | -0.0205 ± 0.015 | 0.011 ± 0.0099 | 0.051 ± 0.047 | 0.0475 ± 0.021 | 0.0435 ± 0.013 | -0.0215 ± 0.0092 | -0.0045 ± 0.03 | -0.043 ± 0.023 | -0.0065 ± 0.0092 | -0.0035 ± 0.036 | -0.034 ± 0.017 | 0.004 ± 0.0014 | -0.002 ± 0.016 | 0.0065 ± 0.026 | -0.01 ± 0.052
3 | MyoF:Collagen III | 0.0035 ± 0.0035 | -0.0005 ± 0.019 | 0.009 ± 0.0042 | -0.0105 ± 0.0078 | -0.019 ± 0.0085 | -0.03 ± 0.0028 | 0.011 ± 0.0085 | -0.0005 ± 0.00071 | -0.001 ± 0.0071 | -0.013 ± 0.0085 | -0.006 ± 0.016 | -0.0365 ± 0.005 | 0.007 ± 0.0028 | -0.001 ± 0.0071 | -0.039 ± 0.0099 | 0.0085 ± 0.012 | 0.0015 ± 0.0078 | 0.003 ± 0.017 | -0.037 ± 0.045
4 | MyoF:Collagen IV | -0.026 ± 0.0042 | -0.027 ± 0.02 | -0.0075 ± 0.03 | -0.022 ± 0.0042 | -0.002 ± 0.0057 | -0.0135 ± 0.036 | -0.0365 ± 0.05 | -0.0255 ± 0.028 | -0.01 ± 0.028 | -0.0175 ± 0.044 | -0.014 ± 0.038 | 0.0205 ± 0.056 | 0.011 ± 0.014 | 0.051 ± 0.033 | 0.214 ± 0.03 | 0.002 ± 0.03 | -0.009 ± 0.044 | 0.0145 ± 0.063 | -0.0715 ± 0.015
5 | MyoF:Decorin | 0.017 ± 0.025 | 0.0235 ± 0.013 | 0.0245 ± 0.021 | -0.0175 ± 0.0078 | -0.0185 ± 0.0078 | -0.016 ± 0.017 | 0.0065 ± 0.028 | 0.013 ± 0.021 | 0.0255 ± 0.0021 | 0.0135 ± 0.066 | 0.027 ± 0.014 | 0.008 ± 0.052 | 0.007 ± 0.018 | 0.02 ± 0.025 | 0.033 ± 0.055 | 0.0115 ± 0.0035 | -0.0015 ± 0.028 | 0.033 ± 0.057 | -0.083 ± 0.011
6 | MyoF:MMP-1 | -0.0085 ± 0.039 | -0.0145 ± 0.021 | 0.02 ± 0.044 | -0.0295 ± 0.0092 | -0.06 ± 0.071 | 0.0075 ± 0.098 | -0.027 ± 0.0042 | -0.0445 ± 0.0021 | 0.004 ± 0.052 | 0.018 ± 0.16 | 0.043 ± 0.16 | 0.0695 ± 0.12 | -0.032 | -0.018 ± 0.038 | 0.043 ± 0.086 | 0.002 ± 0.0057 | 0.007 ± 0.023 | 0.032 ± 0.076 | 0.231 ± 0.023
7 | MyoF:PAI-I | -0.0045 ± 0.018 | -0.0035 ± 0.00071 | 0.008 ± 0.0042 | -0.0055 ± 0.018 | -0.0105 ± 0.015 | -0.0355 ± 0.015 | 0.009 ± 0.0042 | 0.014 ± 0.013 | 0.0205 ± 0.0064 | -0.0115 ± 0.0092 | -0.011 ± 0.018 | -0.0065 ± 0.018 | -0.0225 ± 0.011 | -0.023 ± 0.024 | -0.0305 ± 0.029 | 0.0125 ± 0.011 | 0.007 ± 0.011 | 0.0095 ± 0.016 | 0 ± 0.042
8 | MyoF:SRB | -0.0045 ± 0.0035 | -0.001 ± 0.0014 | 0.005 ± 0.0042 | 0 ± 0.0014 | -0.001 ± 0.0028 | -0.0095 ± 0.0092 | 0 ± 0.0042 | -0.0015 ± 0.012 | 0.0015 ± 0.016 | 0.0005 ± 0.011 | -0.009 ± 0.014 | -0.0255 ± 0.021 | 0.0025 ± 0.0035 | 0.0065 ± 0.012 | -0.034 ± 0.0057 | -0.0025 ± 0.0035 | -0.0065 ± 0.0021 | 0.006 ± 0.017 | -0.0185 ± 0.013
9 | MyoF:TIMP-1 | -0.0325 ± 0.032 | -0.05 ± 0.055 | -0.076 ± 0.0028 | -0.0615 ± 0.011 | -0.039 ± 0.025 | -0.014 ± 0.0042 | 0.0095 ± 0.05 | 0.015 ± 0.048 | 0.011 ± 0.02 | -0.0305 ± 0.042 | -0.0235 ± 0.011 | -0.056 ± 0.0099 | -0.0245 ± 0.005 | 0.0185 ± 0.0078 | 0.089 ± 0.013 | 0.021 ± 0.062 | 0.0235 ± 0.067 | 0.0315 ± 0.087 | -0.0015 ± 0.016
10 | MyoF:alpha-SM Actin | 0.0075 ± 0.019 | 0 ± 0.011 | -0.012 ± 0.025 | 0.0185 ± 0.069 | 0.0145 ± 0.063 | 0.009 ± 0.059 | -0.0025 ± 0.015 | -0.0195 ± 0.03 | 0.0045 ± 0.018 | -0.0265 ± 0.025 | -0.0175 ± 0.047 | -0.0235 ± 0.005 | 0.014 ± 0.02 | 0.0155 ± 0.047 | -0.0035 ± 0.032 | 0.025 ± 0.041 | 0.0195 ± 0.04 | 0.041 ± 0.055 | -0.157 ± 0.012
11 | MyoF:bFGF | -0.004 ± 0.0042 | -0.0155 ± 0.011 | -0.006 ± 0.0028 | -0.015 ± 0.0028 | -0.015 ± 0.014 | -0.0025 ± 0.0092 | 0.002 ± 0.0071 | 0.008 ± 0.014 | 0.004 ± 0.021 | -0.015 ± 0.0042 | -0.0015 ± 0.03 | -0.0195 ± 0.00071 | -0.023 ± 0.0057 | -0.0275 ± 0.0035 | -0.0085 ± 0.03 | 0.0035 ± 0.0035 | -0.009 ± 0.021 | 0.005 ± 0.042 | 0.0155 ± 0.0064
